{"source": "patent US6214805A", "about": "“RNase L activators and antisense oligonucleotides effective to treat RSV infections” (priority 1997, dated 2001)", "key": {"RSV strain A2 [1]": {"tested_on": "RSV strain A2", "test": "Inhibition of RSV replication in RSV-infected 9HTE cells, virus plaque assay on CV-1 cells at 36 h post-infection", "assay_type": "cell-based, Respiratory syncytial virus", "details": "for % Inhibition of RSV replication: 9HTE cells, M.O.I. 2.0, 36 hrs post-infection", "description": "To develop 2-5A antisense chimeras with the potential to block RSV replication, an oligonucleotide binding site in the viral RNA polymerase (RSV L) mRNA, which encodes a low abundance message that is absolutely required for RSV replication was selected. The first chimera synthesized and evaluated was pA4 -antiRSV/(8490-8509). The binding sites for the chimeric oligonucleotide's antisense domain are to the transcripts of nucleotides 8490-8509 in the RSV genome, which spans the translation start codon for the L protein, and to nucleotides 8490-8509 of the antigenomic strand (the template for reproduction of the genome). Since to function as an effective treatment, a candidate agent must be able to inhibit viral replication subsequent to diagnosis, the anti-RSV effect of the 2-5A antisense chimera was determined on human tracheal epithelial cells, 9HTE, with treatments beginning either 4 h before RSV infection (pre-/post-infection treatments) or 2 h following infection (post-infection treatments). In the post-infection treatments, pA4 -antiRSV/([…]), was added at t+2, t+14 and t+26, (numbers represent time in h relative to time of infection, 0) For pre-infection treatment, pA4 -antiRSV/(8490-8509) (10 μM final concentration), was added at t-4, and t0 in addition to […]; t+14 and t+26. Virus harvested from control and oligonucleotide-treated 9HTE cells was measured by infecting CV-1 cells and subsequently counting viral plaques. […] On the basis of these experiments, all subsequent experiments were performed with post-infectiontreatments only. Additionally, these experiments indicate the potential use of these compounds as a treatment for active infection as compared to a prophylactic measure.\nThe human tracheal epithelial cell line, 9HTE, (Gruenert et al., 1988) and CV-1 cells, (American Type Culture Collection, Rockville, Md., CCI#70) a green monkey kidney cell line which is highly permissive to RSV infection, were cultured in minimal essential medium (MEM) supplemented with 10% (v/v) fetal bovine serum (FBS), 2 mM L-glutamine, 1× MEM amino acids solution, 1× MEM non-essential amino acids solution, 100 U/ml penicillin, 100 μg/ml streptomycin and 0.25 μg/ml amphotericin B (\"culture medium\") (all reagents from Gibco BRL, Bethesda, Md.). RSV strain A2 (ATCC No. VR1302) was propagated in CV-1 cells. CV-1 monolayers were infected at a multiplicity of infection (M.O.I.) of 0.2 and cultured 46 h in MEM, 2% FBS, 1× Penicillin/Streptomycin (PS) in 5% CO2, 95% O2 at 37° C. Cells were then washed 2 times in MEM and subsequently covered in MEM, 2% FBS, 1× PS, 50 mM HEPES (pH7.5), 100 mM Mg(SO4). After 2 h at 37° C., cells were scraped and sonicated as previously described (Panuska et al., 1995). Aliquots (1 ml each) of cell sonicates were flash frozen in ethanol/dry ice within 20 min of scraping. Several aliquots were then thawed and titered by a plaque assay on CV-1 cells as previously described (Cirino et al., 1993). The range of virus yield from this procedure was 2 to 7×10^6 plaque forming units (pfu) per ml.\nInfection of 9HTE cells was performed as previously described (Merolla et al., 1994). Briefly, confluent monolayers were exposed to RSV diluted in MEM, 2% FBS, for 2 h at 37° C. in 5% CO2, 95% O2. After exposure, cells were washed two times with serum-free MEM media and then fresh culture media (with 10% FBS) was added. Oligonucleotides were either added 4 h prior to infection (t-4) or immediately after infection (t+2) and also at t+14 and t+26. Cells were harvested for plaque assays at 36 h post-infection to determine viral titers as previously described (Cirino et al., 1993). Cells were washed twice to remove any residual antisense and were then scraped in MEM containing 2% FBS, 1× PS. 9HTE cells were sonicated for 20 sec on ice then the extracts were serially diluted and transferred to a confluent monolayer of CV-1 for quantitation of infectious viral particles. […]"}, "RSV M2 RNA": {"tested_on": "RSV M2 RNA", "test": "RT-PCR of M2 RNA from RSV-infected 9HTE cells", "assay_type": "cell-based, Respiratory syncytial virus", "details": "RNA at 8 h post-infection, M.O.I.=10", "description": "To determine if RSV RNA levels correlated with antiviral activity, RT-PCR analysis was performed on RNA isolated from RSV-infected and uninfected 9HTE cells with and without treatment with spA4 -antiRSV3'3'T/(8281-8299) or spA4 -antiRSV3'3'A/(8530-8547). An M2 RNA sequence in RSV (from nucleotides 7879 to 8465) was converted to cDNA and amplified by PCR. M2 RNA from the RSV-infected cells produced an RT-PCR DNA product that was clearly visible. […] Levels of GAPDH transcripts were similar in all of these RNA preparations.\nRNA was collected from 2×10^5 9HTE cells at 8 h post-infection (M.O.I.=10) by RNAzol treatment as described by the manufacturer (Tel-Test, Inc, Freindswood, Tex.). RNA was isolated after 8 h to limit RSV replication to a single cycle. Isolated RNA (≈1 μg) was incubated with 100 pmoles of the appropriate downstream (-) primer listed below or 100 pmoles of random hexamer (used for glyceraldehyde-3-phosphatedehydrogenase, GAPDH, mRNA only). RNA and primers were heated to 70° C. for 10 min then cooled rapidly on ice for 5 min. […]\n25 μl Hot-Start upper buffer contained 5 U Taq DNA polymerase (GibcoBRL) and 1/10th of the cDNA from the RT reaction. […] Aliquots of the RT/PCR mixtures were analyzed on 1% agarose/TBE gels."}, "RSV strain A2 [2]": {"tested_on": "RSV strain A2", "test": "Antiviral activity in Hep-2 cells, neutral red (reduction of RSV-induced CPE)", "assay_type": "cell-based, Respiratory syncytial virus", "details": "neutral red, MOI = 0.005, added twice daily for 4 d, read on d 5", "description": "(§1) A comparison of the efficacies of spA4 -antiRSV3'3'T/(8281-8299) treatment and conventional ribarvirin treatment can be obtained by determining the RSV-inhibitory concentration and the cytotoxic concentration of each compound. Cultures of the human laryngeal carcinoma cell line HEp-2 and the […] renal cell line MA-104 were established and infected with an MOI=0.005. Cultures were fed twice daily. Treatment with either ribavirin or spA4 -antiRSV3'3'T/(8281-8299) was begun simultaneously with infection and continued for four days. Treatment was then withdrawn and the test read on day 5. The effects of treatment on RSV infection were reported as 1) an EC50, the concentration at which there was a 50% reduction in the observable cytopathic effects of infection and 2) an EC90, the concentration at which there was a 90% reduction in viral production. […] Therapeutic efficacy is estimated by the Selectivity Index, which is the ratio of IC50 /EC50.\ndetermined with RSV strain A2, MOI = 0.005\n(§2) Fresh medium and oligo or ribavirin added twice daily for 4 d and test read\n(§3) EC50 effective concentration to reduce RSV-induced CPE by 50%."}, "RSV strain A2 [3]": {"tested_on": "RSV strain A2", "test": "Virus yield reduction in MA-104 cells", "assay_type": "cell-based, Respiratory syncytial virus", "details": "RSV yield reduced by 90%, MOI = 0.005, added twice daily for 4 d", "description": "as §1\n(§4) as determined with RSV strain A2, MOI = 0.005\nas §2\nEC90 effective concentration to reduce RSV yield by 90%."}, "RSV strain A2 [4]": {"tested_on": "RSV strain A2", "test": "Antiviral activity in MA-104 cells, visual CPE", "assay_type": "cell-based, Respiratory syncytial virus", "details": "visual CPE, MOI = 0.005, added twice daily for 4 d, read on d 5", "description": "as §1, §4, §2, §3"}, "MA-104 Cells": {"tested_on": "MA-104 Cells", "test": "Cytotoxicity to MA-104 cells (visual and dye uptake, rapidly dividing cells)", "assay_type": "cell-based, murine", "description": "as §1\n(§5) IC50 50% inhibitory concentration for cytotoxicity to cells (visual"}, "Hep-2 Cells": {"tested_on": "Hep-2 Cells", "test": "Cytotoxicity to Hep-2 cells (visual and dye uptake, rapidly dividing cells)", "assay_type": "cell-based, human", "description": "as §1, §5"}}, "data": [{"substance": "spA2'p(A2'p)3 -[(Bu)p]2 -(5'atg gtt att tgg gtt gtt3'-3't5') [spA4-antiRSV3'-3'T/(8281-8299)]", "values": [{"measurement": "% Inhibition of RSV replication", "setting": "RSV strain A2 [1]; 3.3 μM oligonucleotide/treatment at t+2, t+14, t+26 h", "result": 91.3, "unit": "%"}, {"measurement": "% Inhibition of RSV replication", "setting": "RSV strain A2 [1]; 6.6 μM oligonucleotide/treatment at t+2, t+14, t+26 h", "result": 97, "unit": "%"}, {"measurement": "% Inhibition of RSV replication", "setting": "RSV strain A2 [1]; 9.9 μM oligonucleotide/treatment at t+2, t+14, t+26 h", "result": 99.6, "unit": "%"}, {"measurement": "comparison of anti-RSV activities (FIG. 3)", "setting": "RSV strain A2 [1]; spA4-linked versus spA2-linked oligonucleotide", "result": "greater potency"}, {"measurement": "M2 RNA RT-PCR product", "setting": "RSV M2 RNA", "result": "no M2 RNA detected"}, {"measurement": "EC50", "setting": "RSV strain A2 [2]", "result": 300, "unit": "nM"}, {"measurement": "EC90", "setting": "RSV strain A2 [3]", "result": 20, "unit": "nM"}, {"measurement": "EC50", "setting": "RSV strain A2 [4]", "result": 20, "unit": "nM"}, {"measurement": "IC50", "setting": "MA-104 Cells", "result": "> 10000", "unit": "nM"}, {"measurement": "IC50", "setting": "Hep-2 Cells", "result": "> 10000", "unit": "nM"}]}]}
